Assay results: the METLIN SMRT retention time set (Domingo-Almenara et al. 2019)

Experiment: gradient 5% acetonitrile 3 min, to 50% in 2 min, to 85% in 15 min, held 3 min, 100 µL/min
Conditions: column: Zorbax Extend-C18 2.1 x 50 mm; eluents: water / acetonitrile, 0.1% formic acid
In short: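 In both positive and negative ionization mode, a quadrupole time-of-flight mass spectrometer coupled to HPLC analyzed pure standards run in mixtures of ~100 molecules. The Zorbax Extend-C18 column (2.1 × 50 mm, 1.8 μm) was operated at 100 μL/min with water and acetonitrile, each containing 0.1% formic acid. The dead volume was 40 μL and the dwell volume 900 μL. Retention time came from adduct peaks that were computationally picked and individually inspected by hand.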

SMILES	RP-LC retention time
COCC(=O)N(C1CCOCC1)C1CCN(S(=O)(=O)c2ccc(F)c(F)c2)CC1	788 s
CC(C)NC(=O)C1CCCN(c2nc3ncn(CC(=O)NC4CCCCC4)c(=O)c3s2)C1 (stereo not drawn)	666 s
CCC(=O)N(C1CCOCC1)C1CCN(S(=O)(=O)c2cc(F)ccc2C)CC1	864 s
CCc1nc(OCC(=O)NCCOC)c2c(-c3ccc(F)cc3)noc2n1	845 s
Cc1ccc(F)c(NS(=O)(=O)c2cc(-c3[nH]ncc3C(=O)N3CCCC3)oc2C)c1	710 s
O=C(NCc1cccs1)c1cnn2c(-c3ccc(Cl)cc3)ccnc12	983 s
Cc1oc(C2CCN(S(=O)(=O)c3ccccc3F)CC2)nc1C(=O)N1CCCC1	886 s
O=C(Nc1cc(-c2ccncc2)no1)c1ccccc1	663 s
CCCCN(C)C(=O)CCC1CCN(c2cc(NC3CC3)ncn2)CC1	654 s
Cn1nc(C(=O)N2CCC3(CC2)N=C(c2ccc(Br)cc2)NO3)c2ccccc21	916 s
CC(CNC(=O)C1CCN(C(=O)c2ncn3c2COC(c2ccccc2)C3)CC1)c1ccccc1 (stereo not drawn)	826 s
O=S(=O)(c1cc(-c2nnc(C3CCCC3)o2)co1)N1CCC(N2CCCCC2)CC1	670 s
O=C(c1ccc2ccccc2n1)N1CCC(OCC2CC2)C1 (stereo not drawn)	832 s
O=c1n(Cc2cc(F)cc(F)c2)nc2c(S(=O)(=O)N3CCOCC3)cccn12	743 s
CSc1ccc(C(C(C(=O)c2ccco2)N2CCOCC2)N2CCOCC2)cc1 (stereo not drawn)	698 s
Cn1c(C2CCN(C(=O)Nc3ccc(F)cc3)CC2)cc(=O)n2nccc12	615 s
COCC(=O)N(CC(=O)N1CCc2sccc2C1COc1ccc(Cl)cc1)CC1CCCO1 (stereo not drawn)	871 s
CCOCC(=O)N1CC(F)(F)C[C@H]1c1nc(C(=O)NC)no1	626 s
CCCN1C(=O)Cc2ccccc2C1C(=O)NCC1CCCCC1 (stereo not drawn)	881 s
Cc1nc2nc(-c3ccccc3)nn2c(C)c1CC(=O)N1CCCC1	679 s
CNc1ncnc2c1cnn2C1CCCCO1 (stereo not drawn)	635 s
Cc1oc2nc3c(c(=O)n(CC(=O)OCc4ccccc4)c(=O)n3C)n2c1C	840 s
CCCCCN(CC(=O)N1CCNCC1)C(=O)c1cccc(Br)c1	664 s
Cc1ccc(-c2nc3nc(C)cc(C)n3c2Nc2cccc(C(F)(F)F)c2)cc1	817 s
Cc1cc(C)n(-c2ccnc(N3CCC(C(=O)N4CCC5(CC4)OCCO5)CC3)n2)n1	712 s
O=C(N1CCN(S(=O)(=O)Cc2ccccc2)CC1)N1C[C@H]2C[C@H](C1)[C@H]1CCCC(=O)N1C2	709 s
O=C(c1ccc2c(c1)OCO2)N1CCN(c2nc(CN3CCOCC3)cs2)CC1	596 s

SMILES	RP-LC retention time
O=C(C1CCCO1)N1CCC(OCc2nc(-c3cccnc3)no2)CC1 (stereo not drawn)	636 s
CCn1cc(S(=O)(=O)N2CCC(c3noc(COCCOC)n3)CC2)cn1	704 s
COc1ccc2c(c1)C1(CCN(C(=O)Cc3ccccc3Cl)C1)C(=O)N2C (stereo not drawn)	848 s
O=C(NCc1ccncc1)C1CCCN(c2ccc(Sc3ccc(Br)cc3)nn2)C1 (stereo not drawn)	653 s
c1ccc(-c2nc(C3CCN(Cc4cccs4)C3)no2)nc1 (stereo not drawn)	583 s
CN1CCCC1c1nc(C2CN(C(=O)c3ccn[nH]3)C2)no1 (stereo not drawn)	506 s
O=C(CCCc1ccccc1)N1C[C@H]2CNC(=O)[C@]23CCCC[C@@H]13	770 s
COc1cc(-c2oc3cc(O)cc(O)c3c(=O)c2O[C@@H]2O[C@H](CO)[C@@H](O)[C@H](O)[C@H]2O)cc(OC)c1O	619 s
O=C(Nc1ccccn1)C1(c2cccs2)CCOCC1	745 s
COc1ccccc1-c1csc(-c2nnn(-c3cccc(Cl)c3)c2N)n1	1210 s
O=C(NCCc1csc(-c2cccc(F)c2)n1)Nc1c(F)cccc1F	810 s
COCCN1CCC(N2CCCN(C(=O)C3COc4ccccc4O3)CC2)C1=O (stereo not drawn)	560 s
CC1CCCN(S(=O)(=O)c2ccc(-c3nnc(C4CC4)o3)o2)C1 (stereo not drawn)	940 s
Cc1ccc(NC(=O)c2cn(C)nc2S(=O)(=O)N2CCSCC2)cc1Cl	1080 s
C#Cc1cccc(Nc2ncnc3cc(OCCOC)c(OCCO)cc23)c1	663 s
c1cc(CN2CCC(Oc3nccnc3N3CCOCC3)C2)ccn1 (stereo not drawn)	546 s
Cc1sc(-c2cc(C(F)(F)F)on2)cc1S(=O)(=O)NCCC(C)C	1200 s
Fc1cccc(-c2nn3c(CSc4ccccc4)nnc3s2)c1	969 s
COCc1nc(NCc2cccnc2)ncc1C(=O)O	809 s
CCOCCCN1C(=O)CN(C2CCCCCC2)C(=O)C1c1ccc(OCC)c(OC)c1 (stereo not drawn)	925 s
CN(C)C(=O)CCc1ccc2c(c1)CN(C(=O)C1COc3ccccc3O1)CCO2 (stereo not drawn)	790 s
COCC(=O)NC1CCC12CCN(C(=O)CC(C)C)CC2 (stereo not drawn)	675 s
O=C(Nc1ccc(F)cc1F)Nc1c(-c2ccc(F)cc2)nc2ccccn12	677 s
Cn1nccc1C(=O)N1CCCC1c1ccc(Cl)cc1 (stereo not drawn)	817 s
CC(C)Sc1nccn2nc(-c3cccs3)cc12	1280 s
Cc1ccc(NC(=O)C2CCN(S(=O)(=O)c3c(C)[nH]c(C)c3C(=O)N3CCCC3)CC2)cc1	723 s

The next lines start with the values.

RP-LC retention time	SMILES
887 s	CC(=O)Nc1ccc(NC(=O)COc2cc(C)nc(-c3ccc(C(F)(F)F)cc3)n2)cc1
772 s	Cc1cc(=O)n(CC(=O)Nc2cccc(C#N)c2)c(N2CCc3ccccc3C2)n1
726 s	CCN1CCn2c(nc3cc(C(=O)NCc4ccc(OC(C)C)cc4)ccc32)C1=O
934 s	CCc1ccc(NC(=O)N2CCc3c(c(-c4nc(C5CC5)no4)nn3C)C2)cc1
950 s	Cc1cccc(C(=O)Nc2ccc(N3CCN(C4CCCCC4)C3=O)nc2)c1
1000 s	CCc1cc(C(=O)NCc2ccccc2Cl)nc2ccnn12
939 s	Cc1ccc(CN2CCN(CC(=O)Nc3cccc(C(F)(F)F)c3)C(=O)C2=O)cc1
972 s	COc1ccccc1CNC(=O)Cn1c(=O)cc(-c2nc(C(C)C)no2)c2ccccc21
830 s	Cn1c(=O)sc2cc(S(=O)(=O)N3CCC(C(=O)NCCc4ccccc4)CC3)ccc21
1160 s	COc1ccc(NC(=O)Cc2c(C)nn(-c3nc(-c4ccc(F)cc4)cs3)c2C)c(OC)c1
897 s	CS(=O)(=O)Nc1ccc(C2(C(=O)NCc3ccc(F)cc3)CCCCC2)cc1
1230 s	CC(C)Oc1ccc(-c2noc(Cn3c(=O)n(CCc4ccccc4)c(=O)c4sccc43)n2)cc1
1170 s	COc1ccc(-c2csc(C)n2)cc1S(=O)(=O)N1CCN(c2cccc(Cl)c2)CC1
742 s	CCNC(=O)N1CCc2c(c(-c3nc(Cc4ccccc4)no3)nn2C)C1
1040 s	COc1ccc(NC(=O)Cn2cccc2-c2nc(-c3ccc4c(c3)OCO4)no2)c(OC)c1
916 s	COc1ccc(OC)c(S(=O)(=O)N2CCCC(C)(C(=O)NCc3cccc(F)c3)C2)c1 (stereo not drawn)
708 s	CSc1ccc(CNC(=O)c2cn3cc(C)ccc3n2)cc1
747 s	COCCNC(=O)N(C)CCc1noc(COc2ccc(Cl)cc2)n1

RP-LC retention time	SMILES
898 s	CC(C)c1ccc(-n2nc(N3CCN(C(=O)Cc4cccs4)CC3)ccc2=O)cc1
724 s	CC(C)Cn1c(=O)c(N2CCN(C(=O)CSc3ccccc3)CC2)nc2ccncc21
809 s	Cc1cccc(N2C(=O)CN(S(C)(=O)=O)CC2(C)C(=O)NCc2ccc(F)cc2)c1C (stereo not drawn)
1260 s	CCc1ccccc1NC(=O)C1CCCN(c2nc3c(s2)c(C)nn3-c2cccc(F)c2)C1 (stereo not drawn)
1160 s	COc1cc(OC)cc(-c2nc(-c3ccc4nnn(C(C)C)c4c3)no2)c1
1010 s	C=CCn1c(=O)c2ccccc2n(Cc2nc(-c3cccc(OC)c3)no2)c1=O
1250 s	COc1cccc(NC(=O)c2cc(C(C)(C)C)n3nccc3n2)c1
877 s	COc1ccc2c(c1)OC1(C)CC2C(S(=O)(=O)c2ccc(C)cc2)C(=O)N1 (stereo not drawn)
844 s	CN1c2cc(C(=O)NCc3cc(F)cc(F)c3)ccc2C(=O)N2CCCCC21 (stereo not drawn)
949 s	COc1ccc(C(O)Cn2ccn3nc(-c4cc(C)ccc4C)cc3c2=O)cc1 (stereo not drawn)
866 s	COc1ccc(-n2c(=O)n(C)c(=O)c3cc(C(=O)Nc4ccc(F)cc4C)cnc32)cc1
728 s	O=C(NCCc1c[nH]c2ccccc12)c1ccc(N2C(=O)CCS2(=O)=O)cc1
744 s	CC(C)n1nnc2cc(C(=O)N(C)CC(=O)Nc3ccc(F)cc3F)ccc21
662 s	CCNC(=O)C1CCN(c2nc3ncn(CC(=O)Nc4ccc(OCC)cc4)c(=O)c3s2)CC1
940 s	O=C(NCc1noc(COc2ccccc2)n1)c1ccc(-c2noc(C3CC3)n2)cc1
1290 s	CC(Oc1ccc(F)cc1)C(=O)Nc1ccc(-c2nc(-c3ccc(F)cc3)no2)cc1 (stereo not drawn)
616 s	O=C(NCc1cccnc1)c1nnc(-c2ccc(S(=O)(=O)N3CCCC3)cc2)o1
